According to patent US20240041976A1, “COMPOSITION AND USE” (priority 2020, published 2024):
Read-outs that look alike come from different tables or passages of the source. No end group written: not given here.

Legend:
MRSA ATCC 33591 = experiment: microbe, parasite or virus in culture; type: cell-based, Staphylococcus aureus; details: for MIC: Staphylococcus aureus, 24 h, read-out: MIC, single antimicrobial
Experimental: (§1) Antimicrobial activity was measured using the AAMP assay (Wiegand et al., 2008, Nat. Protoc., Vol. 3(2), p 163-175).
(§2) Synergy testing was done with a microtiter plate checkerboard assay as previously described (Orhan et al., 2005, J. Clin. Microbiol., Vol. 43(1), p 140-143). Briefly, equal amounts of antimicrobial A were applied on microtiter plate 1 in wells A1-H1 and then diluted two-fold to wells 2-12. Similarly, equal amounts of antimicrobial B were applied on microtiter plate 2 in wells A1-A12 and diluted two-fold in wells B-H. Volumes of 50 μl of antimicrobial A from each well of microtiter plate 1 were transferred into microtiter plate 3, except for wells H1-H12. Similarly, the same volumes were transferred from microtiter plate 2 into plate 3, except for wells A1-A8. A 100 μl volume of 25 times diluted ON bacterial culture of MRSA was transferred into each well of plate 3. A 50 μl volume of pure broth was added into each well in lines H1-H12 and A1-A8 which were used to estimate MIC values of pure substances (blank).
(§3) Antimicrobial activity was measured using the AAMP assay as described in Example 2.
(§4) Synergy testing was performed as in Example 2.

S. aureus LMG3265 = experiment: AAMP assay (MIC), single components and formulation mixture; type: cell-based, Staphylococcus aureus; details: Staphylococcus aureus, LMG3265, 24 h; read-out: MIC, single component
Experimental: as §1
(§5) Three-component synergy was assessed by mixing the three components (100 μg of PenG, 50 μg of GarKS and 2.5 μg of MP1) into one well of a microtiter plate, compared with activity of individual antimicrobials on the same plate. The fractional inhibition concentration (FIC) which was used to define synergy was calculated as set forth in Example 1.

S. aureus LMG3264 = experiment: as above; type: cell-based, Staphylococcus aureus; details: Staphylococcus aureus, LMG3264, 24 h; read-out: MIC, single component
Experimental: as §1, §5

S. aureus LMG3307 = experiment: as above; type: cell-based, Staphylococcus aureus; details: Staphylococcus aureus, LMG3307, 24 h; read-out: MIC, single component
Experimental: as §1, §5

S. aureus LMG3255 = experiment: as above; type: cell-based, Staphylococcus aureus; details: Staphylococcus aureus, LMG3255, 24 h; read-out: MIC, single component
Experimental: as §1, §5

S. aureus LMG3263 = experiment: as above; type: cell-based, Staphylococcus aureus; details: Staphylococcus aureus, LMG3263, 24 h; read-out: MIC, single component
Experimental: as §1, §5

S. aureus LMG3322 = experiment: as above; type: cell-based, Staphylococcus aureus; details: Staphylococcus aureus, LMG3322, 24 h; read-out: MIC, single component
Experimental: as §1, §5

S. aureus LMG3026 = experiment: as above; type: cell-based, Staphylococcus aureus; details: Staphylococcus aureus, LMG3026, 24 h; read-out: MIC, single component
Experimental: as §1, §5

S. aureus LMG3271 = experiment: as above; type: cell-based, Staphylococcus aureus; details: Staphylococcus aureus, LMG3271, 24 h; read-out: MIC, single component
Experimental: as §1, §5

MRSA USA-300 = experiment: AAMP assay and checkerboard synergy; type: cell-based, Staphylococcus aureus; details: MRSA USA-300; for MIC: Staphylococcus aureus, 24 h, read-out: MIC, single antimicrobial
Experimental: as §1, §2, §5

MRSA 43484 = experiment: AAMP assay and checkerboard synergy; type: cell-based, Staphylococcus aureus; details: MRSA 43484; for MIC: Staphylococcus aureus, 24 h, read-out: MIC, single antimicrobial
Experimental: as §1, §2, §5

MRSA ATCC 33591-lux = experiment: AAMP assay and checkerboard synergy; type: cell-based, Staphylococcus aureus; details: for MIC: Staphylococcus aureus, 24 h, read-out: MIC, single antimicrobial
Experimental: as §1, §2, §5

[1] = tested on: S. pseudintermedius MRSP 45; experiment: microbe, parasite or virus in culture; type: cell-based, Staphylococcus pseudintermedius; details: 24 h; for MIC: Staphylococcus pseudintermedius, MRSP45, MRSP 45, Table 8, read-out: MIC, single component
Experimental: as §1, §2, §3, §4

S. aureus LMG3242 = experiment: AAMP assay (MIC), single components and formulation mixture; type: cell-based, Staphylococcus aureus; details: Staphylococcus aureus, LMG3242, 24 h; read-out: MIC, single component
Experimental: as §1, §5

S. aureus LMG3258 = experiment: as above; type: cell-based, Staphylococcus aureus; details: Staphylococcus aureus, LMG3258, 24 h; read-out: MIC, single component
Experimental: as §1, §5

S. aureus LMG3328 = experiment: as above; type: cell-based, Staphylococcus aureus; details: Staphylococcus aureus, LMG3328, 24 h; read-out: MIC, single component
Experimental: as §1, §5

S. aureus LMG3314 = experiment: as above; type: cell-based, Staphylococcus aureus; details: Staphylococcus aureus, LMG3314, 24 h; read-out: MIC, single component
Experimental: as §1, §5

S. aureus LMG3266 = experiment: as above; type: cell-based, Staphylococcus aureus; details: Staphylococcus aureus, LMG3266, 24 h; read-out: MIC, single component
Experimental: as §1, §5

[2] = tested on: three MRSA strains (ATCC33591-lux, USA-300 and MRSA 43484); experiment: AAMP assay and checkerboard synergy, summary; type: cell-based, Staphylococcus aureus; details: for synergy with GarKS: checkerboard assay
Experimental: as §2, with “Briefly,” for “Synergy testing was done with a microtiter plate checkerboard assay as previously described (Orhan et al., 2005, J. Clin. Microbiol., Vol. 43(1), p 140-143). Briefly,”, “A 100 μl volume of 25 times diluted ON bacterial culture of MRSA was transferred into each well of plate 3.” left out
Three-component synergy was assessed by mixing the three components (100 μg of PenG, 50 μg of GarKS and 2.5 μg of MP1) into one well of a microtiter plate, compared with activity of individual antimicrobials on the same plate.

Molecule | MIC of MP1 in comb. with the labelled antimicrobial (MRSA ATCC 33591) [µg/mL] | MIC of the labelled antimicrobial in comb. with MP1 (MRSA ATCC 33591) [µg/mL] | MIC (MRSA ATCC 33591) [µg/mL] | MIC (S. aureus LMG3265) [µg/mL] | MIC (S. aureus LMG3264) [µg/mL] | MIC (S. aureus LMG3307) [µg/mL] | MIC (S. aureus LMG3255) [µg/mL] | MIC (S. aureus LMG3263) [µg/mL] | MIC (S. aureus LMG3322) [µg/mL] | MIC (S. aureus LMG3026) [µg/mL] | MIC (S. aureus LMG3271) [µg/mL] | MIC of the antimicrobial in comb. with GarKS (MRSA USA-300) [µg/mL] | MIC of the antimicrobial in comb. with GarKS (MRSA 43484) [µg/mL] | MIC of the antimicrobial in comb. with GarKS (MRSA ATCC 33591-lux; MRSA ATCC 33591-lux) [µg/mL] | MIC [1] [µg/mL] | MIC (MRSA USA-300) [µg/mL] | MIC (MRSA 43484) [µg/mL] | MIC of the antimicrobial in comb. with GarKS ([2]; All three strains) [µg/mL] | synergy with GarKS [2] | also measured
CC(C)=CCCC(C)=CCCC(C)=CCO [Farnesol] | 0.08 | 14 | 56 | – | – | – | – | – | – | – | – | – | – | – | – | – | – | – | – | –
CN(C)[C@@H]1C(O)=C(C(N)=O)C(=O)[C@@]2(O)C(O)=C3C(=O)c4c(O)cccc4[C@@](C)(O)[C@H]3C[C@@H]12 [Tet, Tetracycline] | 0.08 | 10 | 150 | 2.4 | 2.4 | 0.6 | 2.4 | 2.4 | < 0.3 | 77 | 2.4 | 0.6 | 0.6 | 38 | 150 | – | – | – | – | –
CC[C@H]1OC(=O)[C@H](C)[C@@H](O[C@H]2C[C@@](C)(OC)[C@@H](O)[C@H](C)O2)[C@H](C)[C@@H](O[C@@H]2O[C@H](C)C[C@H](N(C)C)[C@H]2O)[C@](C)(O)C[C@@H](C)C(=O)[C@H](C)[C@@H](O)[C@]1(C)O [Ery, Erythromycin] | – | – | – | > 2500 | < 2.5 | < 2.5 | < 2.5 | > 2500 | < 2.5 | < 2.5 | < 2.5 | 16 | 32 | 62 | > 250 | 31 | 62 | 16 to 62 | no synergy or only additive effects | MIC (S. aureus LMG3242): < 2.5 µg/mL; MIC (S. aureus LMG3258): < 2.5 µg/mL; MIC (S. aureus LMG3328): < 2.5 µg/mL; MIC (S. aureus LMG3314): < 2.5 µg/mL; MIC (S. aureus LMG3266): > 2500 µg/mL; MIC, single antimicrobial (MRSA ATCC 33591-lux; MRSA ATCC 33591-lux): >250 µg/mL; MIC (MRSA ATCC 33591-lux; MRSA ATCC 33591-lux): > 250 µg/mL
CC1(C)S[C@@H]2[C@H](NC(=O)[C@H](N)c3ccccc3)C(=O)N2[C@H]1C(=O)O [Amp, Ampicillin] | – | – | – | – | – | – | – | – | – | – | – | 16 | 16 | 16 | – | < 2500 | < 2500 | 16 | moderate synergy | MIC (MRSA ATCC 33591-lux): < 2500 µg/mL; MIC of the component when combined ([2]; GarKS with Amp or PenG): 16 µg/mL; MIC ([2]; Staphylococcus aureus, 24 h, All three strains, read-out: MIC, single antimicrobial): > 2500 µg/mL
CC(=O)O[C@H]1C[C@@]2(C)[C@@H](C[C@@H](O)[C@H]3[C@@]4(C)CC[C@@H](O)[C@@H](C)[C@@H]4CC[C@@]32C)/C1=C(\CCC=C(C)C)C(=O)O [Fusidic acid] | 0.15 | 0.04 | 0.6 | – | – | – | – | – | – | – | – | – | – | – | 1.25 | – | – | – | – | –
[H]/N=C(/N)N[C@H]1[C@H](O)[C@@H](O)[C@H](O[C@@H]2O[C@@H](C)[C@](O)(C=O)[C@H]2O[C@@H]2O[C@@H](CO)[C@H](O)[C@@H](O)[C@@H]2NC)[C@@H](N/C(N)=N\[H])[C@@H]1O [Str, Streptomycin] | – | – | – | 31 | > 250 | 62 | 125 | 31 | 62 | 31 | 125 | 32 | 32 | 32 | > 2500 | 62 | 62 | 32 | moderate synergy with GarKS only against two MRSA out of three | MIC (S. aureus LMG3242): 250 µg/mL; MIC (S. aureus LMG3258): 62 µg/mL; MIC (S. aureus LMG3328): 62 µg/mL; MIC (S. aureus LMG3314): 62 µg/mL; MIC (S. aureus LMG3266): > 125 µg/mL; MIC, single antimicrobial (MRSA ATCC 33591-lux; MRSA ATCC 33591-lux): >2500 µg/mL; MIC (MRSA ATCC 33591-lux; MRSA ATCC 33591-lux): > 2500 µg/mL
MIKKFPNPYTLAAKLTTYEINWYKQQYGRYPWERPVA [EJ97 short] | – | – | – | – | – | – | – | – | – | – | – | – | – | – | – | – | – | – | – | MIC, single component [1]: >25 µg/mL
C=C(NC(=O)[C@@H](NC(=O)[C@H](Cc1c[nH]cn1)NC(=O)[C@@H](NC(=O)[C@H](CO)NC(=O)[C@@H]1CS[C@@H](C)[C@H]2NC(=O)[C@H](C)NC(=O)[C@H](NC(=O)[C@H](CCCCN)NC(=O)[C@H](CCSC)NC(=O)[C@H](CC(N)=O)NC(=O)[C@@H]3CS[C@@H](C)[C@@H](NC(=O)[C@H](CCCCN)NC(=O)[C@@H]4CS[C@@H](C)[C@@H](NC(=O)[C@@H]5CSC[C@@H](NC(=O)/C(=C/C)NC(=O)[C@@H](N)[C@@H](C)CC)C(=O)N[C@@H]([C@@H](C)CC)C(=O)NC(=C)C(=O)N[C@@H](CC(C)C)C(=O)N5)C(=O)N5CCC[C@H]5C(=O)NCC(=O)N4)C(=O)NCC(=O)N[C@@H](C)C(=O)N[C@@H](CC(C)C)C(=O)N[C@@H](CCSC)C(=O)NCC(=O)N3)[C@H](C)SC[C@H](NC2=O)C(=O)N[C@@H](CC(N)=O)C(=O)N1)[C@@H](C)CC)C(C)C)C(=O)N[C@@H](CCCCN)C(=O)O [nisinZ] | 0.3 | 0.8 | – | – | – | – | – | – | – | – | – | – | – | – | – | – | – | – | – | MIC, single antimicrobial (MRSA ATCC 33591): >12.5 µg/mL
